The numbers were not newly measured in patent US10130562B2, “Monomer mixture for the preparation of dental materials” (Ivoclar Vivadent AG, priority 2014, dated 2018), which cites them from elsewhere.

In one series the test system is rat. The following applies: in vivo.

On to `C=C(C)C(=O)OCCOCCOCCOC(=O)C(=C)C` [TEGDMA, triethylene glycol dimethacrylate], for which, in the series with DNA molecules of mammals, the “gene mutations in the DNA molecules of mammals” value is “leads to gene mutations”. Also, the LD50 with rat was more than 5000 mg/kg.
